This is an account of results in US20230123497A1, “NOVEL ANTIBACTERIAL HYDROGELS” (NewSouth Innovations Pty Limited, priority 2020, published 2023).

Molecules are shown by their SMILES.

The test system of data set [1] is E. coli K12. Kind of data set: Antibacterial activity of NO released from hydrogel 4 under blue light, viable count method. The class given is cell-based, Escherichia coli. The procedure: The antibacterial activity of NO released from hydrogel 4 was investigated in vitro. Initially, a single colony of E. coli K12 was grown in LB broth medium (Sigma-Aldrich) at 37° C. overnight. The resulting bacteria were harvested via centrifugation to obtain a bacteria pallet which was re-suspended in the same volume of LB, twice. The optical density value of the resulting culture was adjusted to 0.1 at 600 nm (10^8 cfu·mL^−1). This bacteria solution was then further adjusted to 3×10^4 cfu·mL^−1.
Hydrogel 4 was prepared at 1% w/v in two different vials. The first vial (vial a) contained hydrogel 4 which will be exposed to blue light. Meanwhile vial b contained hydrogel 4, which will be covered using aluminium foil during the entire experiment. Furthermore, on top of these pre-formed hydrogels, 1 mL of bacteria solution was carefully cast. A vial c that contained only 1 mL of bacteria solution was also prepared. Subsequently, vial a and vial c were irradiated using blue light (440-450 nm). As a negative control, a bacteria solution in the absence of hydrogel and blue light was used in this experiment. After 2 hours, 100 μL of bacteria solution in each vial was taken and subjected to serial dilution using PBS. 20 μL of each dilution were carefully transferred into nutrient agar plates and incubated for another 18 hours. The following day, bacterial growth inhibition were quantified using viable count method. The experiment was performed twice in triplicate and multiple sample comparison was performed using one-way ANOVA at p<0.05.
Bacterial culture (1 mL containing 3×10^4 CFU) was carefully placed on top of hydrogel 4, followed by irradiation of blue light for 1 hour. The viability of bacteria after being exposed to blue light was calculated via the viable count method as illustrated in FIG. 15.
Hydrogel 4, by itself, might exert activity against E. coli. Therefore, the antibacterial activity of hydrogel 4 in the absence of blue light was also determined in a control experiment. […]

The subject of data set [2] is HEK 293T cells. Put plainly: Cytotoxicity, Alamar Blue colorimetric assay. In kind it is cell-based. As for the experimental part: Cytotoxicity measurements were performed using an Alamar Blue colorimetric assay. Each experiment was repeated at least three times. Cells were passaged using standard cell culture procedures. Cells were detached with trypsin and centrifuged (1000 rpm for 3 min). The supernatant was removed and the cells re-suspended in Dulbecco's Modified Eagle Medium (DMEM) at a concentration of 100,000 cells per mL. Cells were seeded at a concentration of 6,000 cells per well. For cytotoxicity measurements, […] of hydrogel made from short-peptide 4 (at 1% w/v and 2% w/v) and short peptides 11, 12, 13, and 16 (at 0.3, 0.6, and 1.0% w/v) were added in triplicate to a 96-well plate and allowed to set overnight. Surrounding wells were supplemented with water to ensure hydration of the gels. Gels were then incubated for 24 h with DMEM. Cells were seeded atop the hydrogels and incubated for 24 hours, before […] of Alamar Blue was added to the wells, followed by further incubation for 4 h. Control wells included cell-free gels, no hydrogels and a negative control of 15% (v/v) DMSO. The absorbances at 570 nm and 596 nm were recorded using a BioRad Benchmark plate reader.

Data set [3] can be described thus: NO release from hydrogel 4 quantified with Griess reagent. The class given is physicochemical. The procedure: NO release from hydrogel 4 was quantified using the Griess reagent, which is an indirect method that measures collected nitrite as the primary degradation product of NO. Nitrobenzene-appended anthranilamide-based hydrogel 4 was pre-formed in an aluminium covered vial at 1% w/v (1 mL). Milli-Q water (1 mL) was carefully cast on top of the hydrogel, which was subsequently exposed to UV or blue light irradiation. At certain time points (0, 5, 15, 30, 60, and 120 min), the entire upper solutions were carefully removed and allowed to react with Griess reagent, according to the indication of the NO assay kit (Promega), to provide an azo compound that is responsible for providing the colorimetric assay. Subsequently, 1 mL of fresh Milli-Q water was immediately added to the top of hydrogel 4 for continuing the release.
Due to the strong absorbance of hydrogel 4 in the UV range, NO release was triggered by using a UV lamp (λ=356 nm). The same volume of Milli-Q water was placed on top of hydrogel 4, which was irradiated with UV light for 2 hours. The entire solution, on top of the hydrogel, was removed and replaced with the same amount of Milli-Q water periodically. The resulting solutions were reacted with Griess reagent. Any NO generated during the experiment would react with oxygen to generate nitrite ion (NO2^−). The subsequent reaction between NO2^− with Griess reagent, which contains sulfanilamide and N-(1-naphthyl)ethylenediamine (NED), will form a bright pink azo-dye compound that can be quantified using UV-Vis spectroscopy, as shown in the below scheme: […]

Take `O=C(Nc1ccccc1C(=O)N[C@@H](Cc1ccccc1)C(=O)N[C@@H](Cc1ccccc1)C(=O)O)c1ccc([N+](=O)[O-])c(C(F)(F)F)c1` [Compound 4, (2-(4-Nitro-3-(trifluoromethyl)benzamido)benzoyl)-L-phenylalanyl-L-phenylalanine]: the Log reduction in data set [1] (hydrogel 4 1% w/v, blue light irradiation 1 hour) was roughly 3 Log. In addition, the “bacterial number after treatment” value in data set [1] (hydrogel 4 1% w/v, blue light irradiation 1 hour, from 3×10^4 CFUs) came to 34 CFUs. Also, the “bacterial reduction without light” value in data set [1] (hydrogel 4 without light irradiation) is on record as “no bacterial reduction was observed”. The cell viability entry was “more than 90%” in data set [2] (hydrogel 4 at 1% w/v, compared to the control) and “A similar result was observed” in data set [2] (hydrogel 4 at 2% w/v). Moreover, the NO detected in data set [3] (hydrogel 1% w/v, UV light (λ=356 nm), 5 minutes) was found to be 1 µM. Besides, the NO generated in data set [3] (hydrogel 1% w/v, UV light (λ=356 nm), 30 minutes) stood at 7 µM. Besides, the NO recovered in data set [3] (hydrogel 1% w/v, UV light, 2 hours) was 61%. For the same compound, in data set [3] (hydrogel 1% w/v, blue light), the “irradiation time required to generate NO concentration that can kill E. coli” value worked out at 1 h. The “total NO recovered” value in data set [3] (hydrogel 1% w/v, blue light, 2 hours) came out at 23%. Also, the “NO release in the absence of triggers” value in data set [3] (no UV or blue light) was “does not leach NO”.
